Experimental data as given in PMC11874377, “Fungal-derived methyldeoxaphomins target Plasmodium falciparum segregation through the inhibition of PfActin1” (Proceedings of the National Academy of Sciences of the …, 2025).

Columns and labels:
Dd2 = assay: Stage specific activity assay; type: cell-based, Plasmodium falciparum; settings: 5 × EC50
Procedure: To corroborate the findings identified through the in vitro evolution of resistance, the activity of NPDG-F was assessed in a stage-dependent manner in vitro. Because actin proteins are needed for chromosome separation, we anticipated that parasites treated with NPDG-F would arrest late in the cell cycle. The parasite strain Dd2 was first synchronized and treated in ring (~6 h post invasion, HPI), trophozoite (~18 HPI), early schizont (~30 HPI), or late schizont (~42 HPI). Cultures were then observed in each condition every 12 h until reinvasion occurred via Giemsa stain and flow cytometry. When added in early ring, NPDG-F treated cultures proceeded normally through the intraerythrocytic life cycle until late schizogony (Fig. 4A). […]
EC50s. […] Dose-response curves were then generated for the available conditions where EC50s could be determined. The fractional inhibitor concentration of both compounds was then determined as described (Fivelman et al., 2004) for the available points and graphed on a scale of 0-1 also using Graphpad Prism version 10.
Cytotoxicity was assessed using an MTS (3-(4,5-Dimethylthiazol-2-yl)-5-(3-carboxymethoxyphenyl)-2-(4-sulfophenyl)-2H-tetrazolium) absorbance assay with human HepG2 hepatoma cells. […] Following a 48-h incubation with compounds, MTS solution was added to wells and absorbance was read after 2-4 h on a Synergy Neo2 multimode reader (BioTek Winsooki, VT). […]

Dd2-Pol δ parent line = assay: Resistant parasite phenotyping and cross resistance, SYBR green I EC50 assay, parent line; type: cell-based, Plasmodium falciparum; settings: Plasmodium falciparum; strain Dd2-Pol δ -parent; read-out: EC50 (mean ± SEM)
Procedure: Cloning by limiting dilution was then performed to isolate individual lines from the bulk population. Due to the multiple mutations identified in the first biological replicate, we isolated four clones from this bulk culture as compared to two clones each from the second and third replicates. These clones were phenotyped via a SYBR green I-based dose–response assay (Table 2 and Fig. 2B). […] The DNA of these clones was then extracted and subjected to whole-genome sequencing.
Resistant parasite phenotyping and cross resistance measurement
The EC50 assay was performed at 1% parasitemia, 1% hematocrit with SYBR green I in 96-well plates. The highest final concentration of the methyldeoxaphomin NPDG-F was set at 100 μM. Briefly, the compound was subjected to a 3-fold serial dilution with ten dilution points. Three technical replicates were set up at each dilution point. The Dd2-Pol δ parent line and the resistant parasites at 2% hematocrit and 1% parasitemia were added to the drug media at 1:1 ratio. The plate was incubated at 37°C for 72 hours in a chamber filled with a hypoxic gas mixture (3% oxygen, 5% carbon dioxide, and 92% nitrogen). After incubation, the cells were lysis with lysis buffer (20 mM Tris-HCL, 0.08% saponin, 5 mM EDTA, and 0.8% Triton X-100) containing SYBR green I (10,000X, Thermo Fisher, cat # S7563) overnight. Fluorescence was measured at 485nm excitation and 530nm emission using a PHERAstar FSX plate reader (BMG Labtech, Germany). Dose response curves were graphed with Prism 9 Version 9.5.1.
3D structural analysis of the mutations and docking studies
The crystal structure of PfActin1 with accession number 6TU4 (resolution 2.60 Ang) (Vahokoski et al., 2022) was obtained from the Protein Data Bank (PDB). This structure of PfActin1 contains ligands Jasplakinolide and ADP with a coordinating magnesium ion.
Only chain A was used for the docking experiment. […] Schrodinger maestro software (Schrödinger, LLC) was used to build NPDG-F with the proper stereochemistry using the x-ray structure determined for analog NPDG-A (vide supra). […]

SMILES: C=C1C(C)C2C(Cc3ccccc3)NC(=O)C23C(=O)C=CC(O)C(O)C(C)CC(C)CC=CC3C1O (stereo not drawn) [Methyldeoxaphomin NPDG-F]
- effect when added after 6 HPI (Dd2; 18, 30 or 42 HPI): persisted only in a minor population of schizonts
- effect when added in early ring (Dd2; ~6 HPI, synchronous Dd2): complete life cycle inhibition
- EC50 (Dd2-Pol δ parent line): 3.43 µM
